Data reported in patent US20150025031A1, “METABOLIC DOWNREGULATION FOR CELL SURVIVAL” (WAKE FOREST UNIVERSITY HEALTH SCIENCES, priority 2012, published 2015).

Assays:
[1] = tested on: C2C12 cells, murine myoblasts; assay: MTS metabolic activity of C2C12 cells under hypoxia with adenosine (Example 1); type: cell-based
Protocol: Another group receiving daily doses of adenosine ([…], achieved by serial dilution) was incubated for up to 7 days under hypoxia and then placed back into normoxic conditions without additional supply of adenosine. Adenosine was refreshed by the daily exchange of media in which adenosine was completely dissolved. Media to be used under hypoxia was placed in the hypoxic chamber 24 hr prior to use for deoxygenation down to 2% O2. The metabolic activity of viable cells at each pre-determined time point was assessed using an MTS assay, which measures mitochondrial activity of cells.

[2] = tested on: C2C12 cells; assay: Intracellular ATP level of C2C12 cells under hypoxia; type: cell-based, murine; conditions: 5 mM adenosine
Protocol: Hypoxic condition was maintained with a gas mixture containing 0.1% O2, 5% CO2 and 94.9% N2 at 37° C. and full humidity in an X-Vivo System (Biospherix). […] The hypoxic groups were then placed to the hypoxic chamber and incubated up to day 11, whereas the normoxic group continued to be incubated in the regular incubator. No medium change was made on both normoxic and hypoxic groups up to day 11. After transfer to normoxic conditions, cells were cultured in the regular incubator with an exchange of no adenosine-containing, fresh medium every third day.
Intracellular ATP was measured by using the ATP Bioluminescence Assay Kit HS II (Roche Applied Science). Cells were lysed with 50 μL of lysis buffer and transferred into a well, then 50 μl of luciferase reagent was added to it. After mixing, the light emitted was measured and integrated for 10 seconds by using a SpectraMax M5 luminometer (Molecular Devices). The blank value (from a well containing no ATP) was subtracted from each sample's raw data. ATP concentrations were calculated from the linear part of the standard curve prepared with serial dilutions of a known concentration of ATP and expressed as moles per cell. This, in turn, was re-calculated to a percent ATP of that expressed in the cells grown under normoxic condition.

Nc1ncnc2c1ncn2[C@@H]1O[C@H](CO)[C@@H](O)[C@H]1O [adenosine]
restoration of normal proliferation rate after long-term exposure ([1]; 22 days under adenosine, various doses): still demonstrated the ability to restore its normal proliferation rate | cellular (metabolic) activity under hypoxic conditions ([1]; C2C12, 0.1% O2, daily adenosine up to 7 days, MTS): maintained a steady state of cellular activity | minimum effective concentration of adenosine ([1]; C2C12, 0.1% O2 hypoxia, MTS metabolic activity): about 1 mM | resumption of normal metabolic activity after adenosine removal ([1]; adenosine removed at day 7, back to normoxia): resumed their normal metabolic activity two days after adenosine was removed at day 7 | intracellular ATP level, percentage of that in normoxic cells ([2]; 0.1% hypoxia, day 11): 18% | intracellular ATP level vs control cells ([2]; throughout the hypoxic duration, p<0.05): consistently higher ATP level
